Each compound was assayed on HCT116 cells (assay: In vitro cytotoxicity measured by the cell colony formation assay). Conditions: HCT116 cells, 72 h drug incubation, colonies counted after 7 days; ID50 = drug concentration producing 50% inhibition of colony formation; read-out: IN VITRO ID 50 (nm) HCT116.
Type: cell-based
In short: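 Colony-forming survival was scored 7 days after a 72 h, 37 °C compound exposure followed by washout into fresh medium.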

Q: With `CCCNC(=O)O[C@H]1C[C@H]2OC[C@@]2(OC(C)=O)C2[C@H](OC(=O)c3ccccc3)[C@]3(O)C[C@H](OC(=O)[C@H](O)[C@@H](NC(=O)OC(C)(C)C)c4ccco4)C(C)=C([C@@H](O)C(=O)[C@@]21C)C3(C)C` (some centres unmarked) [Compound 5665] as the compound, how does the IC50 read?
A: Its IC50 is greater than 50 nM.

Same assay, conditions: HCT116 cells, 72 h incubation with drug, colonies counted after 7 days; ID50 = drug concentration producing 50% inhibition of colony formation; read-out: IN VITRO ID 50 (nm) HCT116

Q: For `CCOC(=O)O[C@H]1C(=O)[C@@]2(C)C([C@H](OC(=O)c3ccccc3)[C@]3(O)C[C@H](OC(=O)[C@H](O)[C@@H](NC(=O)c4cccnc4)c4cccs4)C(C)=C1C3(C)C)[C@]1(OC(C)=O)CO[C@@H]1C[C@@H]2O` (some centres unmarked) [Compound 3300], which IC50 is on record?
A: The IC50 was less than 10 nM.

Q: For `CCOC(=O)O[C@H]1C[C@H]2OC[C@@]2(OC(C)=O)C2[C@H](OC(=O)c3ccccc3)[C@]3(O)C[C@H](OC(=O)[C@H](O)[C@@H](NC(=O)OC(C)(C)C)c4ccsc4)C(C)=C([C@@H](O)C(=O)[C@@]21C)C3(C)C` (some centres unmarked) [Compound 4500], which IC50 is on record?
A: Its IC50 is less than 1 nM.

Q: With `CC=CC(=O)NC(c1ccoc1)C(O)C(=O)OC1CC2(O)C(OC(=O)c3ccccc3)C3C4(OC(C)=O)COC4CC(O)C3(C)C(=O)C(OC(=O)OCC)C(=C1C)C2(C)C` (centres unmarked) [Compound 4959] as the compound, how does the IC50 read?
A: Its IC50 is less than 1 nM.

Q: How did the IC50 turn out when `CCOC(=O)O[C@H]1C[C@H]2OC[C@@]2(OC(C)=O)C2[C@H](OC(=O)c3ccccc3)[C@]3(O)C[C@H](OC(=O)[C@H](O)[C@@H](NC(=O)c4ccco4)c4cccs4)C(C)=C([C@@H](O)C(=O)[C@@]21C)C3(C)C` (some centres unmarked) [Compound 4304] was run?
A: The IC50 was less than 10 nM.

Q: With `COC(=O)O[C@H]1C[C@H]2OC[C@@]2(OC(C)=O)C2[C@H](OC(=O)c3ccccc3)[C@]3(O)C[C@H](OC(=O)[C@H](O)[C@@H](NC(=O)OC(C)(C)C)c4ccco4)C(C)=C([C@@H](O)C(=O)[C@@]21C)C3(C)C` (some centres unmarked) [Compound 4575] as the compound, how does the IC50 read?
A: The IC50 was less than 1 nM.

Q: How did the IC50 turn out when `CCOC(=O)O[C@H]1C(=O)[C@@]2(C)C([C@H](OC(=O)c3ccccc3)[C@]3(O)C[C@H](OC(=O)[C@H](O)[C@@H](NC(=O)c4ccccn4)c4cccs4)C(C)=C1C3(C)C)[C@]1(OC(C)=O)CO[C@@H]1C[C@@H]2O` (some centres unmarked) [Compound 3433] was run?
A: Its IC50 is 22.3 nM.

Q: For `COC(=O)O[C@H]1C(=O)[C@@]2(C)C([C@H](OC(=O)c3ccccc3)[C@]3(O)C[C@H](OC(=O)[C@H](O)[C@@H](NC(=O)OC(C)(C)C)c4ccccc4)C(C)=C1C3(C)C)[C@]1(OC(C)=O)CO[C@@H]1C[C@@H]2O` (some centres unmarked) [Compound 2092], which IC50 is on record?
A: The IC50 was less than 1 nM.

Same assay, conditions: HCT116 cells, colony formation, 72 h incubation with drug, colonies counted after 7 days; ID50 = drug concentration producing 50% inhibition of colony formation; read-out: IN VITRO ID 50 (nm) HCT116

Q: How did the IC50 turn out when `CCNC(=O)O[C@H]1C(=O)[C@@]2(C)C([C@H](OC(=O)c3ccccc3)[C@]3(O)C[C@H](OC(=O)[C@H](O)[C@@H](NC(=O)OC(C)(C)C)C(C)C)C(C)=C1C3(C)C)[C@]1(OC(C)=O)CO[C@@H]1C[C@@H]2O` (some centres unmarked) [Compound 2633] was run?
A: The IC50 was less than 10 nM.

Q: For `CCNC(=O)O[C@H]1C(=O)[C@@]2(C)C([C@H](OC(=O)c3ccccc3)[C@]3(O)C[C@H](OC(=O)[C@H](O)[C@@H](NC(=O)OC(C)(C)C)C4CCC4)C(C)=C1C3(C)C)[C@]1(OC(C)=O)CO[C@@H]1C[C@@H]2O` (some centres unmarked) [Compound 2733], which IC50 is on record?
A: Its IC50 is less than 10 nM.

Same assay, conditions: HCT116 colony formation; 72 h drug incubation, colonies counted after 7 days; Example 5, C-7 ester/C-10 hydroxy taxanes; read-out: IN VITRO ID 50 (nm) HCT116

Q: `CC(=O)O[C@@]12CO[C@@H]1C[C@H](OC(=O)C(C)C)[C@@]1(C)C(=O)[C@H](O)C3=C(C)[C@@H](OC(=O)[C@H](O)[C@@H](NC(=O)OC(C)(C)C)c4cccs4)C[C@@](O)([C@@H](OC(=O)c4ccccc4)C12)C3(C)C` (some centres unmarked) [Compound 6333] was tested. Which IC50 did it give?
A: The IC50 was less than 1 nM.

Q: For `CCCC(=O)O[C@H]1C[C@H]2OC[C@@]2(OC(C)=O)C2[C@H](OC(=O)c3ccccc3)[C@]3(O)C[C@H](OC(=O)[C@H](O)[C@@H](NC(=O)OCC(C)C)c4ccoc4)C(C)=C([C@@H](O)C(=O)[C@@]21C)C3(C)C` (some centres unmarked) [Compound 4828], which IC50 is on record?
A: The IC50 was less than 10 nM.

Q: Which IC50 does the source give for `CCCC(=O)O[C@H]1C[C@H]2OC[C@@]2(OC(C)=O)C2[C@H](OC(=O)c3ccccc3)[C@]3(O)C[C@H](OC(=O)[C@H](O)[C@@H](NC(=O)c4ccccc4)c4cccs4)C(C)=C([C@@H](O)C(=O)[C@@]21C)C3(C)C` (some centres unmarked) [Compound 4414] here?
A: Its IC50 is less than 1 nM.

Q: With `C/C=C/C(=O)N[C@@H](c1ccco1)[C@@H](O)C(=O)O[C@H]1C[C@@]2(O)[C@@H](OC(=O)c3ccccc3)C3[C@](C)(C(=O)[C@H](O)C(=C1C)C2(C)C)[C@@H](OC(=O)CC)C[C@H]1OC[C@@]31OC(C)=O` (some centres unmarked) [Compound 3708] as the compound, how does the IC50 read?
A: The IC50 was less than 1 nM.

Same assay, conditions: HCT116 colony formation; 72 h drug incubation, colonies counted after 7 days; Example 10, C-10 ester/C-7 hydroxy taxanes; read-out: IN VITRO ID 50 (nm) HCT116

Q: How did the IC50 turn out when `C/C=C/C(=O)N[C@@H](c1ccco1)[C@@H](O)C(=O)O[C@H]1C[C@@]2(O)[C@@H](OC(=O)c3ccccc3)C3[C@](C)(C(=O)[C@H](OC(=O)CC)C(=C1C)C2(C)C)[C@@H](O)C[C@H]1OC[C@@]31OC(C)=O` (some centres unmarked) [Compound 3982] was run?
A: Its IC50 is less than 1 nM.

Q: For `CCC(=O)O[C@H]1C(=O)[C@@]2(C)C([C@H](OC(=O)c3ccccc3)[C@]3(O)C[C@H](OC(=O)[C@H](O)[C@@H](NC(=O)OC(C)(C)C)C4CCC4)C(C)=C1C3(C)C)[C@]1(OC(C)=O)CO[C@@H]1C[C@@H]2O` (some centres unmarked) [Compound 0596], which IC50 is on record?
A: The IC50 was less than 10 nM.

Q: `CCCC(=O)N[C@@H](c1ccco1)[C@@H](O)C(=O)O[C@H]1C[C@@]2(O)[C@@H](OC(=O)c3ccccc3)C3[C@](C)(C(=O)[C@H](OC(=O)CC)C(=C1C)C2(C)C)[C@@H](O)C[C@H]1OC[C@@]31OC(C)=O` (some centres unmarked) [Compound 3219] was tested. Which IC50 did it give?
A: The IC50 was less than 1 nM.

Q: How did the IC50 turn out when `CCC(=O)O[C@H]1C(=O)[C@@]2(C)C([C@H](OC(=O)c3ccccc3)[C@]3(O)C[C@H](OC(=O)[C@H](O)[C@@H](NC(=O)c4cccnc4)c4cccs4)C(C)=C1C3(C)C)[C@]1(OC(C)=O)CO[C@@H]1C[C@@H]2O` (some centres unmarked) [Compound 4121] was run?
A: The IC50 was less than 10 nM.

Q: How did the IC50 turn out when `CCCC(=O)N[C@@H](c1ccco1)[C@@H](O)C(=O)O[C@H]1C[C@@]2(O)[C@@H](OC(=O)c3ccccc3)C3[C@](C)(C(=O)[C@H](OC(=O)CCC)C(=C1C)C2(C)C)[C@@H](O)C[C@H]1OC[C@@]31OC(C)=O` (some centres unmarked) [Compound 3222] was run?
A: Its IC50 is less than 1 nM.

Q: Which IC50 does the source give for `C/C=C/C(=O)O[C@H]1C(=O)[C@@]2(C)C([C@H](OC(=O)c3ccccc3)[C@]3(O)C[C@H](OC(=O)[C@H](O)[C@@H](NC(=O)OC(C)(C)C)c4cccs4)C(C)=C1C3(C)C)[C@]1(OC(C)=O)CO[C@@H]1C[C@@H]2O` (some centres unmarked) [Compound 2392] here?
A: The IC50 was less than 1 nM.

Q: How did the IC50 turn out when `CC(=O)O[C@@]12CO[C@@H]1C[C@H](O)[C@@]1(C)C(=O)[C@H](OC(=O)C3CC3)C3=C(C)[C@@H](OC(=O)[C@H](O)[C@@H](NC(=O)c4ccccc4)c4ccncc4)C[C@@](O)([C@@H](OC(=O)c4ccccc4)C12)C3(C)C` (some centres unmarked) [Compound 2855] was run?
A: The IC50 was less than 1 nM.

Q: `CCC(=O)O[C@H]1C(=O)[C@@]2(C)C([C@H](OC(=O)c3ccccc3)[C@]3(O)C[C@H](OC(=O)[C@H](O)[C@@H](NC(=O)OC(C)(C)C)c4cccnc4)C(C)=C1C3(C)C)[C@]1(OC(C)=O)CO[C@@H]1C[C@@H]2O` (some centres unmarked) [Compound 0517] was tested. Which IC50 did it give?
A: Its IC50 is less than 10 nM.

Q: `CCCC(=O)O[C@H]1C(=O)[C@@]2(C)C([C@H](OC(=O)c3ccccc3)[C@]3(O)C[C@H](OC(=O)[C@H](O)[C@@H](NC(=O)C=C(C)C)c4cccs4)C(C)=C1C3(C)C)[C@]1(OC(C)=O)CO[C@@H]1C[C@@H]2O` (some centres unmarked) [Compound 4344] was tested. Which IC50 did it give?
A: Its IC50 is less than 1 nM.

Q: Which IC50 does the source give for `CCOC(=O)N[C@@H](c1cccs1)[C@@H](O)C(=O)O[C@H]1C[C@@]2(O)[C@@H](OC(=O)c3ccccc3)C3[C@](C)(C(=O)[C@H](OC(=O)C4CC4)C(=C1C)C2(C)C)[C@@H](O)C[C@H]1OC[C@@]31OC(C)=O` (some centres unmarked) [Compound 4051] here?
A: The IC50 was less than 1 nM.

Q: Which IC50 does the source give for `CC(=O)O[C@@]12CO[C@@H]1C[C@H](O)[C@@]1(C)C(=O)[C@H](OC(=O)C=C(C)C)C3=C(C)[C@@H](OC(=O)[C@H](O)[C@H](C=C(C)C)NC(=O)OC(C)(C)C)C[C@@](O)([C@@H](OC(=O)c4ccccc4)C12)C3(C)C` (some centres unmarked) [Compound 2455] here?
A: Its IC50 is less than 10 nM.

Q: With `CC(=O)OC12COC1CC(O)C1(C)C(=O)C(OC(=O)c3cccs3)C3=C(C)C(OC(=O)C(O)C(NC(=O)OC(C)(C)C)c4ccco4)CC(O)(C(OC(=O)c4ccccc4)C21)C3(C)C` (centres unmarked) [Compound 1892] as the compound, how does the IC50 read?
A: The IC50 was less than 1 nM.
